Consider 1 compound from patent US6774121B1, “Phospholipid prodrugs of anti-proliferative drugs” (D-Pharm, Ltd., priority 1999, dated 2004).

Data set [1] has as its system human leukemia cell line CCRF-CEM (CEM). As to the kind of experiment: MTT cell growth inhibition, CEM cells (Example 4). In kind it is cell-based. The following applies: Homo sapiens, CCRF-CEM; 72 hours, MTT assay; read-out: EC50, nMol CEM. The method, then:
A series of methotrexate derivatives were screened for their inhibitory effect on cell growth. Three tumor cell lines were used for this screen: i) human leukemia cell line CCRF-CEM which is MTX-sensitive (herein denoted as CEM), ii) a mutant of CEM cell line which is MTX-resistant due to a mutation in the RFC (herein denoted as CEM-MTX; provided by Dr. […], Technion, Israel), and iii) rat C6 glioma cell line. Cells were seeded at a density of 10^4 cells/ml in RPMI medium supplemented with 10% FCS in 96 well plates. The cultured cells were incubated, during their linear growth phase, in the presence and absence of various concentrations of MTX derivatives. The tested compounds were prepared as 1 mM stock in absolute ethanol or DMSO and were diluted into the medium. The highest vehicle presence in the assay was 5% of the vehicle. After 72 hours at 37° C. the cytotoxic effect on the cells was estimated by using the colorimetric MTT assay (Mosmann (1983) J. Immunol Methods 65: 55-63) that measures mitochondrial reductase activity and serves for quantitative assessment of cellular viability. […] The EC50 values were calculated from dose response curves for each tested compound.
A general note: Tetrazolium dyes change colour on reduction, which living cells bring about.

The subject of data set [2] is Friend cells (an erythroleukemic cell line). The experiment in a line: MTT cytotoxicity, Friend cells (Example 5). Particulars: 72 hour. In kind it is cell-based. As for the experimental part:
The toxicity of methotrexate derivatives of the invention (DP-MTX) was evaluated in an additional cell-culture system. The doses required to inhibit the growth of cultured Friend cells (an erythroleukemic cell line) by 50%, over a 72 hour period (ED50), were determined using a mitochondrial viability (MTT) endpoint assay.
Friend cells were seeded at a density of 10^4 cells/ml in RPMI medium supplemented with 10% FCS in 96 well plates. The cultured cells were incubated, during their linear growth phase, in the presence and absence of various concentrations of MTX derivatives. After 72 hours at 37° C., cell viability was estimated by using the colorimetric MTT assay.

Data set [3] has as its system Wild type human leukemia CEM cells. As to the kind of experiment: MTT cytotoxicity with and without Leucovorin, CEM cells (Example 6). Type of data set: cell-based. The following applies: CCRF-CEM, 72 hours. The method, then: (§1) Leucovorin is a reduced folate, used in chemotherapy with high doses of methotrexate for ‘rescue’ of host from toxicity.
(§2) Wild type human leukemia CEM cells or the MTX-resistant mutant cells, CEM-MTX, were plated into 96 well plates containing RPMI, 10% FCS at a concentration of 5×10^4 cells/ml. […] Leucovorin, at a final concentration of 10 μM, was added to some of the plates as indicated. The plates were incubated for 72 hours (37° C., 5% CO2) before being assayed for viability using the colorimetric MTT assay (Mosmann (1983) J. Immunol Methods 65: 55-63).

The test system of data set [4] is MTX-resistant mutant cells, CEM-MTX. As to the kind of experiment: MTT cytotoxicity with and without Leucovorin, CEM-MTX cells (Example 6). Type of data set: cell-based. Particulars: Homo sapiens, 72 hours. As for the experimental part: as §1, §2
Another data set relates to CEM. The experiment in a line: MTT cytotoxicity on tumor cell lines, CEM (Example 8). Particulars: CCRF-CEM, T-cell ALL (human), 72 hours. In kind it is cell-based. The method, then: (§3) Cell viability was analyzed after 72 hours incubation (37° C., 5% CO2) using the colorimetric MTT assay (Mosmann (1983) J. Immunol Methods 65: 55-63).
The test system of another data set is C6. The experiment in a line: MTT cytotoxicity on tumor cell lines, C6 (Example 8). In kind it is cell-based. Particulars: C6, Glioma (rat), 72 hours. The method, then: as §3
The subject of a further data set is Jurkat. As to the kind of experiment: MTT cytotoxicity on tumor cell lines, Jurkat (Example 8). Type of data set: cell-based. The following applies: Homo sapiens, T-cell lymphoma, 72 hours. As for the experimental part: as §3
A further data set relates to Du148. As to the kind of experiment: MTT cytotoxicity on tumor cell lines, Du148 (Example 8). In kind it is cell-based. The following applies: Du148, Prostate cancer (human), 72 hours. The method, then: as §3
For another data set, the system named is J774. The experiment in a line: MTT cytotoxicity on tumor cell lines, J774 (Example 8). Type of data set: cell-based. The following applies: J774, Myeloma (mouse), 72 hours. The method, then:
as §3

The subject of data set [5] is L1210. As to the kind of experiment: MTT cytotoxicity on tumor cell lines, L1210 (Example 8). In kind it is cell-based. Particulars: L1210, lymphocytic leukemia (mouse), 72 hours. As for the experimental part: as §3
In a further data set the test system is N87. The experiment in a line: MTT cytotoxicity on tumor cell lines, N87 (Example 8). Type of data set: cell-based. The following applies: N87, Gastric carcinoma (human), 72 hours. As for the experimental part: as §3
The subject of the next data set is A431. As to the kind of experiment: MTT cytotoxicity on tumor cell lines, A431 (Example 8). Type of data set: cell-based. The following applies: A-431, A431, Epidermoid carcinoma (human), 72 hours. The method, then:
as §3

Another data set concerns T47D. As to the kind of experiment: MTT cytotoxicity on tumor cell lines, T47D (Example 8). In kind it is cell-based. The following applies: Mammary cancer (human), 72 hours. As for the experimental part:
as §3

Data set [6] deals with L1210. The experiment in a line: MTT cytotoxicity, parent L1210 cells (Example 9). Particulars: Mus musculus. Type of data set: cell-based.
The subject of data set [7] is RFC-mediated MTX-resistant cell line (L1210-MTX). As to the kind of experiment: MTT cytotoxicity, L1210-MTX cells (Example 9). In kind it is cell-based. Particulars: Mus musculus.
Data set [8] concerns L1210 murine leukemia cells. As to the kind of experiment: Survival of mice transplanted i.p. with L1210 leukemia cells. In kind it is in vivo, mouse. The method, then: The anti-tumor effects of DP-MTX were evaluated in vivo on mice transplanted with L1210 murine leukemia cells.
Mice of strain B6D2F 1/J (stock number 100006), which are F1 cross of C57/BJ×DBA/2J, were purchased from The Jackson Laboratory (JAX Mice & Mouse Model Related Services, […], USA). Animals were allowed 10 days adjustment time at our animal care facility before initiation of the experiment.
Mice were transplanted with 1×10^6 L1210 (mouse leukemia; ATCC# CCL-219) or L1210MTX (RFC-mediated MTX resistant L1210 mutant; provided by Dr. Y. Assraf, Technion, Israel) cells by injection into the peritoneum (i.p.) (day 1). […] Another group of 8 animals were injected with vehicle solution (2% propylene-glycol, 0.2% Tween-80 in PBS) and serve as control group. […] Mice survival was monitored daily until the end of the experiment on day 21.

In a further data set the test system is L1210 cells. As to the kind of experiment: Survival of pre-treated mice after L1210 tumor cell implantation. In kind it is in vivo, mouse. Particulars: pre-treatment 3 mg/Kg or equivalent i.p. every other day for 21 days. As for the experimental part: Protection against tumor growth was examined in mice pretreated with MTX or DP-MTX-71.
At the end of this regimen, the mice were injected with 1×10^6 L1210 cells into the peritoneum. The animals were then monitored for viability for 12 days subsequent to the injection of the tumor cells.

Setting [9] is: 10 μM Leucovorin, read-out: EC50, nMol + 10 μM Leucovorin.
Setting [10] is: read-out: EC50, nMol No Leucovorin.

Each structure is given as a SMILES string. Values joined by “and” are separate entries in the source; they are usually repeats but may differ in a detail not shown here. Equal entries are not always repeated. Where two headings read alike, the source gives them in different places.

By EC50 is commonly meant the concentration that produces a half-maximal response. As to `CN(Cc1cnc2nc(N)nc(N)c2n1)c1ccc(C(=O)N[C@@H](CCC(=O)O)C(=O)O)cc1` [MTX, Methotrexate], the 50% effective concentration (EC50) came to 0.021 µM in data set [1]; 0.91 ± 0.378 µM in [3] (setting [9]); 0.023 ± 0.013 µM in data set [3] (setting [10]); 20 ± 12.8 µM in data set [4] (setting [9]); 2.54 ± 0.224 µM in data set [4] (setting [10]); 0.021 µM in the data set on CEM. The concentration giving a half-maximal response (EC50) with C6 turned out to be 0.046 µM; with Jurkat, 0.021 µM; in the data set on Du148 it was 0.029 µM; with J774 it was 0.112 µM; with L1210 [5], 0.013 µM; in the data set with N87 it was 13.5 µM. The concentration giving a half-maximal response (EC50) with A431 came out at 0.85 µM; in the data set with T47D it was 50 µM; with L1210 [6], 0.014 µM; in data set [7] it was 1.08 µM. The “ED50” value in data set [2] was determined as 10 nmol. The “mice surviving at the end of the experiment, on day 21” value in [8] (3 mg/Kg MTX or molar equivalent, i.p. every two days, day 3 to 17) is given as “one”. Further, the “mortality caused by the treatment by itself” value in data set [8] (3 mg/Kg i.p.) is given as “no mortality”. Moreover, the “day on which animal death started” value in [8] (3 mg/Kg i.p. every two days, day 3 to 17) turned out to be 15 days. Further, the Surviving mice in the data set on L1210 cells (9 days after tumor implantation) was 6/6; in the data set on L1210 cells (10 days after tumor implantation), 4/6; in the data set on L1210 cells (11 days after tumor implantation), 3/6; with L1210 cells (12 days after tumor implantation) it was 2 and 2/6.
